25 compounds from BindingDB's records for doi:10.7270/Q27W69N8 (Srmlsc, 2009) can be followed below.

Each structure is given as a SMILES string. “And” between values parts separate entries of the source, which are not always exact repeats. Identical values can stand only once.

For this assay, the target named is T1, M17 leucyl aminopeptidase (Plasmodium falciparum (isolate 3D7), UniProt Q8IL11).
T1 sequence (Q8IL11 whole entry): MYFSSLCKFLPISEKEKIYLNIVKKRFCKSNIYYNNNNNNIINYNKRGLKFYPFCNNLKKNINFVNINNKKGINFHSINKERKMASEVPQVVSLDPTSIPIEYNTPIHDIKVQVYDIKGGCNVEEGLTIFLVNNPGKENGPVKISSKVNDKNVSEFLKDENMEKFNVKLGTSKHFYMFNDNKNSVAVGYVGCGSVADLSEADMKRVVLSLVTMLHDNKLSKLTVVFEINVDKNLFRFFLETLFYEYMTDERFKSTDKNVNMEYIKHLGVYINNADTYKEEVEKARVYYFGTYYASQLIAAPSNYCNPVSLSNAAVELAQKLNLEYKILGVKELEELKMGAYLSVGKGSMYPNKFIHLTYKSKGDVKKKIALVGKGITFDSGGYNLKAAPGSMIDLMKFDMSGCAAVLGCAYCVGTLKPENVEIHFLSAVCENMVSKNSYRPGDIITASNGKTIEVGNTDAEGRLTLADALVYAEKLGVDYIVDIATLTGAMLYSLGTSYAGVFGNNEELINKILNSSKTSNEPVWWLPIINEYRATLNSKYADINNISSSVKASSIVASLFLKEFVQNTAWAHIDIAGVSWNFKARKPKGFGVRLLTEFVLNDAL
Kind of assay: P. falciparum M17LAP inhibitors, primary screen, biochemical, fluorogenic H-Leu-NHMec substrate, 1536-well (AID 1619).
One may read the IC50 as the point on the concentration scale where inhibition reaches its midpoint. Low readings indicate greater potency in that assay, high ones weaker potency in that assay. Compound `CCOC(=O)C1C(=O)C(=Cc2ccc(OCC(=O)O)c(OCC)c2)SC1=Nc1ccc(OC)cc1` (stereo not given) [MLS000704394] had a half-maximal inhibitory concentration (IC50) of 21.3 µM.
Consider `CCOc1cc(C2c3c(-c4ccccc4)n[nH]c3OC(=N)C2C#N)ccc1O` (stereo not given) [SMR000019337], for which the half-maximal inhibitory concentration (IC50) came to 77.1 µM.
Turning to `CC(=NNC(=O)CCc1c(C)[nH][nH]c1=O)c1ccc([N+](=O)[O-])cc1`, the IC50 worked out at 80.6 µM.
In the case of `C/C(=C\c1ccco1)C1c2c(-c3ccc(C)cc3)n[nH]c2OC(=N)C1C#N` (stereo not given) [MLS000519110] it was 132 µM; in that of `COc1cccc(C=NNC(=O)Cc2c(C)[nH][nH]c2=O)c1O` [N'-[(E)-(5-methoxy-6-oxocyclohexa-2,4-dien-1-ylidene)methyl]-2-(3-methyl-5-oxo-1,4-dihydropyrazol-4-yl)acetohydrazide], 92.1 µM; in that of `N#Cc1c(NC=C2C(=O)NC(=S)NC2=O)sc2c1CCCC2` [SMR000305847], 110 µM.
`Cc1cc(C=C2C(=O)NC(=O)N(c3ccc(F)cc3)C2=O)c(C)n1-c1ccc(C(=O)O)cc1` [SMR000273525] came in with a half-inhibitory concentration (IC50) of 149 µM.
The result for `O=C(O)[C@H]1O[C@@H](Oc2c(-c3ccc(O)c(O)c3)oc3cc(O)cc(=O)c-3c2O)[C@H](O)[C@@H](O)[C@@H]1O` [quercetin glucuronide] reads 48.2 µM; that for `O=C(O)c1cc(N=NCc2ccc(OCc3ccccc3)cc2)ccc1Cl` [SMR000364895], 20 µM; that for `N#CC1C(=N)Oc2[nH]nc(-c3ccccc3)c2C1c1ccsc1` (stereo not given), 64.5 µM.
Consider `N#CC1C(=N)Oc2[nH]nc(-c3ccccc3)c2C1c1cccnc1` (stereo not given) [MLS000030179], for which half-maximal inhibition (IC50) was put at 60.4 µM.
In the case of `O=NCc1c[nH]c2ccccc12` [MLS000104363] it was 13.2 µM; in that of `Cc1ccc(-c2ccc([CH+][N-]Nc3nc(O)c(CC(=O)O)s3)o2)c([N+](=O)[O-])c1` [SMR000135699], 101 µM.
The result for `CC(CCC1CC(C)OC1=O)N=Nc1nc(-c2ccccc2)cs1` (stereo not given) [SMR000204131] reads 30.8 µM; that for `C=C(c1ccc(OC)cc1)c1sc(=S)n(CCC(=O)O)c1O`, 30.1 µM and 27.4 µM; that for `C=CCN1C(=O)/C(=C/c2ccc(OCC(=O)O)cc2)SC1=Nc1nccs1` [2-[4-[(Z)-[4-oxidanylidene-3-prop-2-enyl-2-(1,3-thiazol-2-ylimino)-1,3-thiazolidin-5-ylidene]methyl]phenoxy]ethanoic acid], 18.9 µM.
`Cc1ccc(S(=O)(=O)Oc2cccc(-n3c(O)c4c(c3O)CC=CC4)c2)cc1` [SMR000197106] gave an IC50 of 49.6 µM.
The result for `O=C(CSc1n[nH]c(=O)[nH]c1=O)NN=Cc1ccccc1O` [2-[(3,5-dioxo-2,3,4,5-tetrahydro-1,2,4-triazin-6-yl)thio]-N'-(2-hydroxybenzylidene)acetohydrazide] reads 129 µM.
In the case of `CCOc1ccc(-n2c(O)cc(SCCN)c2O)cc1` [3-(2-Amino-ethylsulfanyl)-1-(4-ethoxy-phenyl)-pyrrolidine-2,5-dione] it was 23.6 µM.
In turn, `O=C1N=c2ccccc2=C1NNc1ccc(C(=O)O)cc1` [4-[2-(2-oxidanylideneindol-3-yl)hydrazinyl]benzoic acid] yielded a concentration for half-maximal inhibition (IC50) of 84.3 µM.
The result for `CCOc1ccccc1-n1c(O)cc(Sc2nnc(-c3ccccc3)[nH]2)c1O` [1-(2-ethoxyphenyl)-3-[(5-phenyl-4H-1,2,4-triazol-3-yl)thio]-2,5-pyrrolidinedione] reads 8.97 µM.
Regarding `CCc1nnc(NS(=O)(=O)c2ccc(N=CCC(=O)c3cccc4ccccc34)cc2)s1` [SMR000172027], the IC50 was determined as 10.1 µM.
The result for `Cc1ccc(CN=Nc2ccc(C(=O)O)cc2)s1` [SMR000364894] reads 20.4 µM; that for `Cc1ccc(C2C(C(=O)c3ccc(Br)cc3)C(=O)C(=O)N2Cc2ccco2)o1` (stereo not given) [(4Z)-4-[(4-bromophenyl)-hydroxy-methylene]-1-(2-furfuryl)-5-(5-methyl-2-furyl)pyrrolidine-2,3-quinone], 66.4 µM; that for `Cc1c(C)c(O)c(C=CCCC#CCCCC#CCO)c(C)c1O` [docebenone], 53.4 µM.
